Test results reported in patent publication US20060281789A1, “Protein kinase inhibitors” (KYOWA HAKKO KOGYO CO., LTD, priority 2003, published 2006).
Counter-ions that a name gives are not always drawn.

Experiments:
ML-1 = test: Cytostatic activity on human acute myeloid leukemia cell line ML-1 (WST-1); assay type: cell-based; settings: ML1, 3.16 μmol/L, 72 hours, read-out: ML-1 (%) cytostatic rate
Description: (§1) The cytostatic rates of a test compound on human acute myeloid leukemia cell lines MV-4-11 and ML-1, and human chronic myeloid leukemia cell line K562 were determined in the following manner.
(§2) Each cell was cultured using Roswell Park Memorial Institute's Medium (RPMI) 1640 (Gibco, Catalog No. 11875-093) containing 10% fetal bovine serum (Gibco, Catalogue No. 10437-028) and penicillin/streptomycin (1:1) (Gibco, Catalogue No. 15140-122). Each 80 μL of the MV-4-11 cell having a concentration of 7.5×10^4 cells/mL (or the ML-1 cell or K562 cell having a concentration of 2.5×10^4 cells/mL) was inoculated to wells of a TC MICROWELL 96U plate (Nalge Nunc International, Catalogue No. 163320) and was cultured in a 5% carbon dioxide gas incubator at 37° C. for 4 hours. As a blank, only RPMI medium (80 μL) was added to a well. Each 20 μL of a solution of the test compound in dimethyl sulfoxide (DMSO) which was prepared to make the final concentration to 3.16 μmol/L or 10 μmol/L, was added to the MV-4-11 cell, ML-1 cell and K562 cell, respectively. Each 20 μL of DMSO was added to the control well and the blank well to a final concentration of 0.1%. After adding the test compound, the cells were incubated in a 5% carbon dioxide gas incubator at 37° C. for 72 hours. After adding 20 μL of WST-1 reagent {4-[3-(4-iodophenyl)-2-(4-nitrophenyl)-2H-5-tetrazolio]-1,3-benzene disulfonate sodium salt) (Roche Diagnostics K.K., Catalogue No. 1644807) diluted to 50% with RPMI medium, the cells were further incubated at 37° C. for 2 hours. Then, the absorbances at 450 nm (reference wavelength: 690 nm) were determined with a microplate spectrophotometer SPECTRA max 340PC (Molecular Devices Corporation). The relative growth (%) of a well to which the test compound had been added was determined while setting the absorbance of a well to which not the test compound but DMSO alone had been added (control) at 100% and that of a well containing RPMI medium alone at 0%. The cytostatic rate (%) of the test compound was determined by subtracting the calculated relative growth from 100.

MV-4-11 = test: Cytostatic activity on human acute myeloid leukemia cell line MV-4-11 (WST-1); assay type: cell-based; settings: MV4-11, 3.16 μmol/L, 72 hours, read-out: MV-4-11 (%) cytostatic rate
Description: as §1, §2

Colo205 = test: Cytostatic activity on human colon cancer cell line Colo205 (WST-1); assay type: cell-based; settings: 10 μmol/L, 72 hours
Description: The cytostatic rate of a test compound on the human colon cancer cell line Colo205 was determined in the following manner.
The cell was cultured using Roswell Park Memorial Institute's-Medium (RPMI) 1640 (Gibco, Catalog No. 11875-093) containing 10% fetal bovine serum (Gibco, Catalog-No. 10437-028) and penicillin/streptomycin (1:1) (Gibco, Catalog No. 15140-122). Each 80 μL of the Colo205 having a concentration of 1.25×10^4 cells/mL was inoculated to wells of a TC MICROWELL 96F plate (Nalge Nunc International, Catalog No. 167008) and was cultured in a 5% carbon dioxide gas incubator at 37° C. for 4 hours. As a blank, only RPMI (80 μL) was added to a well. Each 20 μL of a solution of the test compound in DMSO which was prepared to make the final concentration to 10 μmol/L, was added to the Colo205 cell. Each 20 μL of DMSO was added to the control well and the blank well to a final concentration of 0.1%. After adding the test compound, the cell was incubated in a 5% carbon dioxide gas incubator at 37° C. for 72 hours. The cytostatic rate (%) was then determined in the same manner as the method or the leukemia cell lines described above.

human Flt-3 = target: T1, human Flt-3 (Homo sapiens, UniProt P36888); test: Inhibitory activity on Flt-3 (GST-fused kinase, time-resolved fluoroimmunoassay); assay type: biochemical; settings: tested compound 10 μmol/L, ATP 10 μmol/L, sixty minutes
T1 construct: fused to the N-terminus of the intracellular domain (583-953 amino acids) thereof; made in house; host or cells: insect cells (baculovirus)
T1 sequence (P36888 583-953): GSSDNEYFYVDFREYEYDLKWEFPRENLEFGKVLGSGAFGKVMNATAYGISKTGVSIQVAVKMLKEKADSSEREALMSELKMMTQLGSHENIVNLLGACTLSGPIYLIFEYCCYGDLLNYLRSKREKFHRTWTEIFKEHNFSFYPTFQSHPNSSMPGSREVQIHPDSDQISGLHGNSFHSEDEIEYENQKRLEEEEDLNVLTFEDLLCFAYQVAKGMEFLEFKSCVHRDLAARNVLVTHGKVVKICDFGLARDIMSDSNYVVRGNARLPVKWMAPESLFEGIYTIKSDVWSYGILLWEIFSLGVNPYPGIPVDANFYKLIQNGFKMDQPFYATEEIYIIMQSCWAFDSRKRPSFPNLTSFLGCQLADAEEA
Description: Flt-3 inhibitory activities were determined in the following manner.
Flt-3 was prepared by allowing baculovirus to infect insect cells, which baculovirus expresses a protein comprising human Flt-3 with […]. […] Separately was prepared a solution containing, at final concentrations, GST-fused Flt-3 (100 μg/L), Tris-Cl (pH 7.5) (20 mmol/L), β-glycerophosphate (5 mmol/L), dithiothreitol (DTT) (1 mmol/L), Na3VO4 (0.1 mmol/L), MgCl2 (10 mmol/L), MnCl2 (10 mmol/L), ATP (10 μmol/L), bovine serum albumin (BSA) (0.1%), DMSO (0.1%), and a tested compound (10 μmol/L). The solution (each 60 μL) was placed into the wells of the plate for the determination of kinase reaction, followed by enzymatic reaction at room temperature for sixty minutes. After reacting, the reaction was stopped by the addition of 50 μL of a 25 mmol/L aqueous solution of ethylenediaminetetraacetic acid. […] The relative activity (%) of a well in which the enzyme and tested compound were added was determined by calculation with the value in a well to which the tested compound was not added being 100% and the value in a well to which the enzyme and the tested compound were not added being 0%. The Flt-3 inhibitory activity (%) of the tested compound was determined by subtracting the relative activity (%) from 100.

K562 = test: Cytostatic activity on human chronic myeloid leukemia cell line K562 (WST-1); assay type: cell-based; settings: 10 μmol/L, 72 hours, read-out: K562 (%) cytostatic rate
Description: as §1, §2

inhibition at 10 µM (human Flt-3) [%] | Structure (SMILES) | inhibition at 3.16 µM (ML-1) [%] | inhibition at 3.16 µM (MV-4-11) [%] | Colo205(%) cytostatic rate (Colo205) [%] | inhibition at 10 µM (K562) [%]
93.8 | COc1cc(/C=C/c2n[nH]c3ccccc23)ccc1OCC(=O)N1CCOCC1 [Compound 40, (E)-N-{4-[2-(1H-indazol-3-yl)vinyl]-2-methoxyphenoxy}acetylmorpholine] | 95 | 95 | 93 | 60
– | CC(=O)N1CCN(c2ccc(/C=C/c3n[nH]c4ccccc34)cc2N)CC1 [Compound 58, (E)-3-{2-[4-(4-acetylpiperazin-1-yl)-3-aminophenyl]vinyl}-1H-indazole] | 90 | 97 | 91 | 61
95.2 | C(=C\c1n[nH]c2ccccc12)/c1ccc(N2CCNCC2)cc1.Cl [Compound 53, (E)-3-{2-[4-(piperazin-1-yl)phenyl]vinyl}-1H-indazole hydrochloride] | 80 | 97 | 90 | 87
94.5 | N#Cc1cc(/C=C/c2n[nH]c3ccccc23)ccc1OCCN1CCOCC1 [Compound 47, (E)-3-{2-[3-cyano-4-(2-morpholinoethoxy)phenyl]vinyl}-1H-indazole] | 89 | 98 | 68 | 75
– | C(=C\c1n[nH]c2ccccc12)/c1cccnc1 [Compound 21, (E)-3-[2-(3-pyridyl)vinyl]-1H-indazole] | 25 | 79 | – | 41
– | Nc1cc(/C=C/c2n[nH]c3ccccc23)ccc1N1CCNCC1 [Compound 59, (E)-3-{2-[3-amino-4-(piperazin-1-yl)phenyl]vinyl}-1H-indazole] | 86 | 98 | 89 | 84
– | CC(C)N(CCOc1ccc(/C=C/c2n[nH]c3ccccc23)cc1)C(C)C [Compound 7, (E)-3-{2-[4-(2-diisopropylaminoethoxy)phenyl]vinyl}-1H-indazole hydrochloride] | 89 | 97 | – | 93
94 | CC(=O)N1CCN(c2ccc(/C=C/c3n[nH]c4ccccc34)cc2)CC1 [Compound 54, (E)-3-(2-[4-(4-acetylpiperazin-1-yl)phenyl]vinyl}-1H-indazole] | 89 | 98 | 78 | 59
– | OCCOc1ccc(/C=C/c2n[nH]c3ccccc23)cc1 [Compound 4, (E)-3-{2-[4-(2-hydroxyethoxy)phenyl]vinyl}-1H-indazole] | 27 | 91 | – | 72
– | COc1ccc(/C=C/c2n[nH]c3ccccc23)cn1 [Compound 22, (E)-3-[2-(6-methoxypyridin-3-yl)vinyl]-1H-indazole] | 9.2 | 82 | – | 63

Structure (SMILES) | inhibition at 10 µM (human Flt-3) [%] | inhibition at 3.16 µM (ML-1) [%] | inhibition at 3.16 µM (MV-4-11) [%] | Colo205(%) cytostatic rate (Colo205) [%] | inhibition at 10 µM (K562) [%]
C(=C\c1n[nH]c2ccccc12)/c1ccc(OCCN2CCOCC2)cc1 [Compound 5, (E)-3-{2-[4-(2-morpholinoethoxy)phenyl]vinyl}-1H-indazole hydrochloride] | 93.3 | 16 | 91 | 90 | 81
